{"source": "ChEMBL document CHEMBL4665871", "about": "“Small-molecule active pharmaceutical ingredients of approved cancer therapeutics inhibit human aspartate/asparagine-β-hydroxylase” (Bioorg Med Chem, 2020)", "key": {"[1]": {"target": "T1, Aspartyl/asparaginyl beta-hydroxylase (Homo sapiens, UniProt Q12797)", "T1 sequence (Q12797 whole entry)": "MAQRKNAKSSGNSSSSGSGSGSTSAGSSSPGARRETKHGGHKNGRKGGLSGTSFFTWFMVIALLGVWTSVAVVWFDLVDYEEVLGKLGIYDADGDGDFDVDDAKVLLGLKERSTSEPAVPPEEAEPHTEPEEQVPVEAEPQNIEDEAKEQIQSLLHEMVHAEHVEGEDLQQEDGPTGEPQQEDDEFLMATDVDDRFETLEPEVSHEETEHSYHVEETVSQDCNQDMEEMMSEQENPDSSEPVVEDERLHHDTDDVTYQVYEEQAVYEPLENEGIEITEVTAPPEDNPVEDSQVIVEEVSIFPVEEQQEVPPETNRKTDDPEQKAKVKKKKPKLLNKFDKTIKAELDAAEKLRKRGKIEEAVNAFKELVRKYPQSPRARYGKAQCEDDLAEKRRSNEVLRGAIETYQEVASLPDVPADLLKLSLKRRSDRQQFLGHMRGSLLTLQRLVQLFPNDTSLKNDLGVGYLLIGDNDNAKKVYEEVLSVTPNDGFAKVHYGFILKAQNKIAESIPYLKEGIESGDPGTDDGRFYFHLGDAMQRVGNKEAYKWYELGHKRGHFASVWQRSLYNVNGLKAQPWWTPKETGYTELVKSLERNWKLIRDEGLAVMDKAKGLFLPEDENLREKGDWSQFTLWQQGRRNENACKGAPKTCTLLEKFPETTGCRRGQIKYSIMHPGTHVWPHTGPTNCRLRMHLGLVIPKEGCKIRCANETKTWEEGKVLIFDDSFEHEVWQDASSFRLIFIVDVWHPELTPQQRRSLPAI", "assay": "Inhibition of N-His6-tagged human AspH (315-755) expressed in Escherichia coli BL21 (DE3) using 1 uM hFX-CP as substrate mixture with high 200 uM 2OG, 100 uM L-ascorbic acid and 2 uM FAS incubated for 35 mins by MS analysis; call rule not given here"}, "[2]": {"target": "T1, Aspartyl/asparaginyl beta-hydroxylase", "assay": "Inhibition of N-His6-tagged human AspH (315-755) expressed in Escherichia coli BL21 (DE3) using high 10 uM hFX-CP as substrate mixture with 10 uM 2OG, 100 uM L-ascorbic acid and 2 uM FAS incubated for 35 mins by MS analysis"}, "[3]": {"target": "T1, Aspartyl/asparaginyl beta-hydroxylase", "assay": "Inhibition of N-His6-tagged human AspH (315-755) expressed in Escherichia coli BL21 (DE3) using 1 uM hFX-CP as substrate mixture with 3 uM 2OG, 100 uM L-ascorbic acid and high 20 uM FAS incubated for 35 mins by MS analysis"}}, "note": "pIC50: −log10 of the molar value."}
{"molecule": "CO[C@H](C(=O)[C@@H](O)[C@@H](C)O)[C@@H]1Cc2cc3cc(O[C@H]4C[C@@H](O[C@H]5C[C@@H](O)[C@H](O)[C@@H](C)O5)[C@H](O)[C@@H](C)O4)c(C)c(O)c3c(O)c2C(=O)[C@H]1O[C@H]1C[C@@H](O[C@H]2C[C@@H](O[C@H]3C[C@](C)(O)[C@H](O)[C@@H](C)O3)[C@@H](O)[C@@H](C)O2)[C@H](O)[C@@H](C)O1", "values": [{"measurement": "pIC50", "setting": "[1]", "value": 4.91}, {"measurement": "pIC50", "setting": "[2]", "value": 5.47}, {"measurement": "IC50", "setting": "[3]", "value": "Not Active"}]}
